Data on nine compounds can be found in patent US20240336610A1, “3CL PROTEASE SMALL-MOLECULE INHIBITOR FOR TREATING OR PREVENTING CORONAVIRUS INFECTION, AND USE THEREOF” (THE GLOBAL HEALTH DRUG DISCOVERY INSTITUTE, priority 2021, published 2024).

In the experiment the target is SARS-CoV-2 main protease (3CLpro) (Severe acute respiratory syndrome coronavirus 2 (2019-nCoV) (SARS-CoV-2), UniProt P0DTD1). Kind of experiment: Enzyme activity test. Type of experiment: biochemical. The note with it: 200 nM recombinant SARS-CoV-2 main protease, 15 μM fluorescent substrate, pH 7.3.

In the case of `CC(=O)N[C@H](C(=O)N1C[C@H]2[C@@H]([C@H]1C(=O)NC(C#N)c1cncc(-n3cccn3)c1)C2(C)C)C(C)(C)C` (stereo partly drawn) [GDI-028, (1R,2S,5S)-N-((5-(1H-pyrazol-1-yl)pyridin-3-yl)(cyano)methyl)-3-((S)-2-acetylamino-3,3-dimethylbutanoyl)-6,6-dimethyl-3-azabi cyclo[3.1.0]hexane-2-carboxamide], the IC50 was 0.0024 µM.
The result for `CN(C)c1ccc(S(=O)(=O)N[C@H](C(=O)N2C[C@H]3[C@@H]([C@H]2C(=O)NC(C#N)c2cncc(C(F)(F)F)c2)C3(C)C)C(C)(C)C)cc1` (stereo partly drawn) [GDI-019, (1R,2S,5S)-N-(cyano(5-(trifluoromethyl)pyridin-3-yl)methyl)-3-((S)-2-((4-(dimethylamino)phenyl)sulfonamido)-3,3-dimethylbutanoyl) -6,6-dimethyl-3-azabicyclo[3.1.0]hexane-2-carboxamide] reads 0.022 µM; that for `CC(C)(C)[C@H](NS(=O)(=O)C(F)(F)F)C(=O)N1C[C@H]2[C@@H]([C@H]1C(=O)NC(C#N)c1cncc3ccccc13)C2(C)C` (stereo partly drawn) [GDI-029, (1R,2S,5S)-N-(cyano(isoquinolin-4-yl)methyl)-3-((S)-3,3-dimethyl-2-((trifluoromethyl)sulfonamido)butanoyl)-6,6-dimethyl-3-azabic yclo[3.1.0]hexane-2-carboxamide], 0.023 µM; that for `CC(=O)N[C@H](C(=O)N1C[C@H]2[C@@H]([C@H]1C(=O)NC(C#N)c1cncc3c(F)cccc13)C2(C)C)C(C)(C)C` (stereo partly drawn) [GDI-033, (1R,2S,5S)-3-((S)-2-acetamido-3,3-dimethylbutyryl)-N-(cyano(8-fluoroisoquinolin-4-yl)methyl)-6,6-dimethyl-3-azabicyclo[3.1.0]h exane-2-carboxamide], 0.056 µM.
The result for `CC(=O)N[C@H](C(=O)N1C[C@H]2[C@@H]([C@H]1C(=O)NC(C#N)c1cncc(Br)c1C)C2(C)C)C(C)(C)C` (stereo partly drawn) [GDI-009, (1R,2S,5S)-3-((S)-2-acetamido-3,3-dimethylbutyryl)-N-((5-bromo-4-methylpyridin-3-yl)(cyano)methyl)-6,6-dimethyl-3-azabicycl o[3.1.0]hexane-2-carboxamide] reads 0.053 µM; that for `CC(=O)N[C@H](C(=O)N1C[C@H]2[C@@H]([C@H]1C(=O)NC(C#N)c1cncc(-c3cnn(C)c3)c1)C2(C)C)C(C)(C)C` (stereo partly drawn) [GDI-030, (1R,2S,5S)-3-((S)-2-acetamido-3,3-dimethylbutyryl)-N-(cyano(5-(1-methyl-1H-pyrazol-4-yl)pyridin-3-yl)methyl)-6,6-dimethyl-3-azabicyclo[3.1.0]hexane-2-carboxamide], 0.018 µM; that for `CC(=O)N[C@H](C(=O)N1C[C@H]2[C@@H]([C@H]1C(=O)NC(C#N)c1cncc(-c3nc(C)no3)c1)C2(C)C)C(C)(C)C` (stereo partly drawn) [GDI-015, (1R,2S,5S)-3-((S)-2-acetamido-3,3-dimethylbutyryl)-N-(cyano(5-(3-methyl-1,2,4-oxadiazol-5-yl)pyridin-3-yl)methyl)-6,6-dimethy 1-3-azabicyclo[3.1.0]hexane-2-carboxamide], 0.12 µM.
For the compound `CC(=O)N[C@H](C(=O)N1C[C@H]2[C@@H]([C@H]1C(=O)NC(C#N)c1c[nH]c3ccccc13)C2(C)C)C(C)(C)C` (stereo partly drawn) [GDI-024, (1R,2S,5S)-3-((S)-2-acetamido-3,3-dimethylbutyryl)-N-(cyano(1H-indol-3-yl)methyl)-6,6-dimethyl-3-azabicyclo[3.1.0]hexane-2-c arboxamide], the IC50 came to 66.3 µM.
The result for `Cc1ccc(S(=O)(=O)N[C@H](C(=O)N2C[C@H]3[C@@H]([C@H]2C(=O)NC(C#N)c2cncc4ccccc24)C3(C)C)C(C)(C)C)cc1` (stereo partly drawn) [GDI-023, (1R,2S,5S)-N-(cyano(isoquinolin-4-yl)methyl)-3-((S)-3,3-dimethyl-2-((4-methylphenyl)sulfonamido)butanoyl)-6,6-dimethyl-3-azabic yclo[3.1.0]hexane-2-carboxamide] reads 0.015 µM.

What is called IC50 is the point on the concentration scale where inhibition reaches its midpoint.
